Columns and labels:
CYP3A4 = conditions: overlapping elimination mechanisms; cited from earlier work
[1] = Paclitaxel plasma pharmacokinetics; format: in vivo, human; conditions: paclitaxel 60 mg/m^2; with daily oral TAK-659
[2] = tested on: patients with advanced solid tumors; format: in vivo, human
[3] = tested on: patients with acute myeloid leukemia (AML); conditions: TAK-659 monotherapy, doses of up to 160 mg daily; cited from earlier work
[4] = TAK-659 plasma pharmacokinetics; format: in vivo, human; conditions: for AUC0-t increase from day 1 to day 15 / clearance decrease from day 1 to day 15: with paclitaxel

| SMILES | substrate for CYP3A4, a major drug metabolizing enzyme (CYP3A4) | increase in exposure (AUC), cycle 1 day 15 compared with cycle 1 day 1 [1] [%] | reduction in clearance, cycle 1 day 15 compared with cycle 1 day 1 [1] [%] | patients with paclitaxel dose reduced ([2]; Nine of 49 patients, given with TAK-659) [%] | patients with dose of TAK-659 reduced ([2]; Six of 49 patients, given with paclitaxel) [%] | recommended phase II dose of TAK-659 ([2]; oral, combined with paclitaxel) [mg daily] | patients who needed a second dose reduction of TAK-659 ([2]; two of 49 patients, given with paclitaxel) [%] | MTD [3] | increase in terminal elimination half-life from day 1 to day 15 ([4]; 60-mg dosing cohort, not statistically significant (P = 0.1650)) [%] | AUC0-t increase from day 1 to day 15 ([4]; 60-mg dosing group) [%] | clearance decrease from day 1 to day 15 ([4]; 60-mg dosing group) [%] | AUC0-t increase from day 1 to day 15 ([4]; 80-mg dosing group) [%] | clearance decrease from day 1 to day 15 ([4]; 80-mg dosing group) [%] | AUC0-t increase from day 1 to day 15 ([4]; 100-mg dosing group) [%] | clearance decrease from day 1 to day 15 ([4]; 100-mg dosing group) [%] |
| --- | --- | --- | --- | --- | --- | --- | --- | --- | --- | --- | --- | --- | --- | --- | --- |
| CC(=O)O[C@H]1C(=O)[C@@]2(C)[C@H]([C@H](OC(=O)c3ccccc3)[C@]3(O)C[C@H](OC(=O)[C@H](O)[C@@H](NC(=O)c4ccccc4)c4ccccc4)C(C)=C1C3(C)C)[C@]1(OC(C)=O)CO[C@@H]1C[C@@H]2O [Paclitaxel, paclitaxel, reference compound] | substrates | ~28 | ~20 | 18 | – | – | – | – | – | – | – | – | – | – | – |
| Cn1cc(-c2nc(N[C@@H]3CCCC[C@@H]3N)c(F)c3c2C(=O)NC3)cn1 [TAK-659, mivavotinib] | substrates | – | – | – | 12 | 80 | 4 | not reached | 41 | 40 | 36 | 66 | 31 | 91 | 46 |

— article PMC11258623 (ESMO Open, 2024)
